Measurements from patent publication EP1625854B1, “Albumin conjugates containing a glucuronic linker” (Deutsches Krebsforschungszentrum Stiftung des öffentlichen …, priority 2004, dated 2006).

Legend:
[1] = tested on: WEHI-7 cells; assay: Induction of cell death in glucocorticoid-sensitive WEHI-7 cells (propidium iodide staining, fluorimetric analysis); type: cell-based, mouse
Procedure: Cell death in glucocorticoid-sensitive WEHI-7 cells was induced by incubation with low molecular hydrocortisone (HC) and albumin-coupled hydrocortisone (hydrocortisone-21-β-D-glucuronide-HSA; HCG-HSA) over a period of 72 h. Different albumin concentrations were equalized by addition of free HSA. Dead cells were determined by fluorimetric analysis (staining with propidium iodide (PI)). […] Since the albumin conjugate was taken up by the cells via endocytosis (whereas the free HC passes the cell membrane via diffusion) HCG-HSA has to be applied in a two-fold concentration for achieving the same effect.

[2] = Stability of MUG-HSA in medium without cells; type: in vitro ADME
Source text: (§1) The amounts given in the Figure relate to 1 well and the methyl umbelliferon glucuronide within the HSA conjugate. After addition of 1 M NaOH methyl umbelliferon was fluorimetrically determined in the cell subernatant at 448 nm with an excitation at 360 nm. […] Thus, despite its coupling to albumin MUG-HSA is a substrate for human synovial fribroblasts. MUG-(HSA) is stable in medium without cells.

[3] = tested on: synovial fibroblasts (sFb); assay: Release of a fluorescent aglycon (methyl umbelliferon) from MUG-HSA in human synovial fibroblasts; type: cell-based
Source text: as §1

Row | Substance | concentration for achieving the same effect ([1]; HCG-HSA relative to free HC, WEHI-7 cells, 72 h) | activity as a glucocorticoid ([1]; despite coupling to albumin, WEHI-7 cells, 72 h) | Cell death ([1]; incubation over 72 h, albumin concentrations equalized with free HSA, dead cells by PI staining, Figure 3) | stability in medium [2] | cleavage of fluorescent methyl umbelliferon ([3]; in conditioned medium of synovial fibroblasts) | Cleavage ([3]; incubation for 24 h in synovial fibroblasts, methyl umbelliferon fluorimetrically determined in supernatant at 448 nm, excitation 360 nm, Figure 4)
1 | hydrocortisone-21-β-D-glucuronide-HSA [HCG-HSA] | two-fold | keeps its activity | dose dependent cell death | – | – | –
2 | methyl umbelliferon glucuronide-HSA [MUG-HSA] | – | – | – | stable | could be demonstrated | could be demonstrated
